Experimental findings from ChEMBL document CHEMBL3639166, “Heteroaryloxyheterocyclyl compounds as PDE10 inhibitors” (2013) are described below.

The experiment concerns the target T1, cAMP and cAMP-inhibited cGMP 3',5'-cyclic phosphodiesterase 10A (Rattus norvegicus, UniProt Q9QYJ6).
T1 sequence (Q9QYJ6 whole entry): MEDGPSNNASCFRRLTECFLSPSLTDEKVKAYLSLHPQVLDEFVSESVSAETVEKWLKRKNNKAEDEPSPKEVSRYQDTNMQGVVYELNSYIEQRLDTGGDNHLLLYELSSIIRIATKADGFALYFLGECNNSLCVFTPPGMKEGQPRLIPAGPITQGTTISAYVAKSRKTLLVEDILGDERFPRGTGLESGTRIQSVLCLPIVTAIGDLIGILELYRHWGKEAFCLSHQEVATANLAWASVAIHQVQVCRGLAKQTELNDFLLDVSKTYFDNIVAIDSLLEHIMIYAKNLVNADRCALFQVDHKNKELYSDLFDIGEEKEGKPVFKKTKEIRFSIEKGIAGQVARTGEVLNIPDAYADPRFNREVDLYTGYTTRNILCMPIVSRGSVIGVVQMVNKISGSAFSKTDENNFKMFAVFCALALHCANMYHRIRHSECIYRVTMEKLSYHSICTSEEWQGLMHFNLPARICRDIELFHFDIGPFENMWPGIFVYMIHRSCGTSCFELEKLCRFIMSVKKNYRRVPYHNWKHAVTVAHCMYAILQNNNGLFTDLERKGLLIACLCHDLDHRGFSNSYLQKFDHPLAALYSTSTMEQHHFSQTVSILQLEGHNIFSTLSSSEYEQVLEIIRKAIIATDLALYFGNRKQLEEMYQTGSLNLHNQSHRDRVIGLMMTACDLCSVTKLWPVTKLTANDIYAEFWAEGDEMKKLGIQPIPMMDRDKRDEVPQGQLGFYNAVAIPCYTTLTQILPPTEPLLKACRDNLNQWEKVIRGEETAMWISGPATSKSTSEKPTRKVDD
Briefly: Enzyme Inhibition Assay: Enzyme activity: An IMAP TR-FRET assay was used to analyze the enzyme activity (Molecular Devices Corp., Sunnyvale, Calif). Background: TR-FRET usually uses a lanthanide donor and a delayed reading to cut background.

The term IC50 denotes the concentration needed to halve the response being measured. A lower IC50 goes with inhibition by little substance. For `c1cnc(O[C@@H]2CCN(c3cc4ccccc4cn3)C2)c(C2CCOCC2)c1`, 1830 nM corresponded to half-maximal inhibition (IC50). `FC1(F)CCCN(c2nccnc2OC2CN(c3ccc4ccccc4n3)C2)C1`: the half-inhibitory concentration (IC50) was determined as 92.1 nM.

As for `CC(C)Oc1cc(F)cc(-c2nccnc2OC2CN(c3ccc4ccccc4n3)C2)c1`, the 50% inhibitory concentration (IC50) was 174 nM. Under `Cc1cc(-c2nccnc2OC2CCN(C(=O)c3nccc4ccccc34)CC2)ccn1` stands 3590 nM; under `CC(=O)N1CCC(c2nccnc2OC2CCN(c3ccc(Cl)cn3)CC2)CC1`, 821 nM; under `OCC1CCN(c2ncc(Cl)c(OC3CN(c4ccc5ccccc5n4)C3)n2)CC1`, 10 nM. As for `Cc1cc(N2CCC(Oc3nccnc3C3CCOCC3)CC2)nc2ccccc12`, the figure is 125 nM; as for `CC(=O)N1CCC(c2cccnc2OC2CN(c3ccc4ccccc4n3)C2)CC1`, 68.8 nM. Under `OCC1CCN(c2ncc(N3CCCCC3)c(OC3CN(c4ccc5ccccc5n4)C3)n2)CC1` stands 18.4 nM; under `CC(O)C1CCN(c2ncc(Br)c(OC3CN(c4ccc5ccccc5n4)C3)n2)CC1` (stereo not drawn), 242 nM; under `CN(C)C(=O)c1cccc(-c2nccnc2OC2CN(c3ccc4ccccc4n3)C2)c1`, 22.8 nM. In turn, `c1ccc2nc(N3CCC(Oc4nccnc4N4CCCCC4)CC3)ccc2c1` came in with an IC50 of 403 nM. Under `c1cnc(O[C@@H]2CCN(c3nccc4ccccc34)C2)c(C2CCOCC2)c1` stands 981 nM; under `OCC1CCN(c2ncc(Br)c(OC3CN(c4ccc5ccccc5n4)C3)n2)C1` (stereo not drawn), 20.6 nM. Under `OCC1CCN(c2ncc(Br)c(OC3CN(c4ncc5ccccc5n4)C3)n2)CC1` stands 14.6 nM; under `c1cnc(OC2CCN(c3nccc4ccccc34)CC2)c(C2CCOCC2)c1`, 1810 nM; under `COc1ncccc1-c1nccnc1OC1CN(c2ncc3ccccc3n2)C1`, 178 nM.

In turn, `CC(C)(C)OC(=O)N1C=C(c2nccnc2OC2CN(C(=O)c3nc4ccccc4[nH]3)C2)CCC1` gave a 50% inhibitory concentration (IC50) of 36.5 nM. As for `COc1ncc(-c2nccnc2OC2CN(c3ccc4ccccc4n3)C2)cn1`, the figure is 42.8 nM; as for `O=C(c1nc2ccccc2[nH]1)N1CC[C@H](Oc2ncccc2C2=CCOCC2)C1`, 715 nM. Molecule `c1cnc(OC2CCN(c3cc4ccccc4cn3)CC2)c(C2CCOCC2)c1` displayed an IC50 of 353 nM. As for `Cc1cc(-c2nccnc2OC2CN(C(=O)c3nc4ccccc4[nH]3)C2)ccn1`, the figure is 156 nM; as for `CC(=O)N1CCC(c2nccnc2OC2CCN(c3ncccc3C)CC2)CC1`, 3010 nM. As for `c1cnc(OC2CN(c3ccc4ccccc4n3)C2)c(N2CCOCC2)c1`, the figure is 12 nM; as for `N#Cc1ccc(N2CCC(Oc3ncccc3C3CCOCC3)CC2)nc1`, 828 nM; as for `CC(C)(O)C1CCN(c2nccnc2OC2CCN(c3ccc4ccccc4n3)CC2)CC1`, 85.8 nM. Under `Fc1cc(-c2nccnc2OC2CN(c3ccc4ccccc4n3)C2)ccn1` stands 39.5 nM; under `O=C(c1cc(Cl)ccn1)N1CCC(Oc2ncccc2C2CCOCC2)CC1`, 8890 nM; under `CC(=O)N1CCC(c2cccnc2OC2CCN(c3ncccc3C)CC2)CC1`, 1490 nM.

With `Cc1cccc(N2CCC(Oc3ncccc3C3CCOCC3)CC2)n1`, the concentration for half-maximal inhibition (IC50) came out at 1670 nM. Take `OCC1CCN(c2ncc(C3=CCOCC3)c(OC3CN(c4ccc5ccccc5n4)C3)n2)CC1`: the IC50 amounted to 1.1 nM.

`CC(=O)N1CCC(c2cccnc2OC2CCN(c3ccccn3)CC2)CC1` had an IC50 of 1080 nM. Under `c1ccc(-c2ccc(-c3nccnc3OC3CN(c4ccc5ccccc5n4)C3)s2)cc1` stands 254 nM; under `N#CC1CCN(c2nc3ccccc3nc2OC2CN(c3ccc4ccccc4n3)C2)CC1`, 19.2 nM; under `c1ccc2c(N3CC[C@@H](Oc4nccnc4C4CCOCC4)C3)nccc2c1`, 4430 nM. Under `c1ccc(-c2nccnc2OC2CN(c3ccc4ccccc4n3)C2)nc1` stands 1220 nM. As for `O[C@H]1CCN(c2nccnc2OC2CCN(c3ccc4ccccc4n3)CC2)C1`, the figure is 198 nM; as for `CC(=O)N1CCC(c2cccnc2OC2CCN(c3ccc(C)cn3)CC2)CC1`, 1170 nM; as for `COCC#Cc1nccnc1OC1CN(c2ccc3ccccc3n2)C1`, 282 nM. For the molecule `Cc1cccc(N2CCC(Oc3nccnc3C3CCOCC3)CC2)n1`, the IC50 is 1440 nM. As for `c1ccc2nc(N3CC(Oc4nccnc4N4CCC4)C3)ccc2c1`, the figure is 86.1 nM; as for `CC(=O)N1CCC(c2nc3ccccc3nc2OC2CN(c3ccc4ccccc4n3)C2)CC1`, 2.9 nM; as for `O=C1CCN(c2nccnc2OC2CCN(c3ccc4ccccc4n3)CC2)CC1`, 195 nM.

`c1ccc2nc(N3CCC(Oc4nccnc4N4CCC4)CC3)ccc2c1` gave an IC50 of 273 nM. As to `CC(=O)N1CCC(c2cccnc2OC2CCN(c3cccc(C)n3)CC2)CC1`, the half-maximal inhibitory concentration (IC50) turned out to be 1180 nM. `OC1CCCN(c2nccnc2OC2CN(c3ccc4ccccc4n3)C2)CC1` (stereo not drawn) displayed an IC50 of 29.5 nM. In the case of `Fc1cnc(OC2CN(c3ccc4ccccc4n3)C2)c(N2CCC(F)(F)CC2)c1`, the half-maximal inhibitory concentration (IC50) is 144 nM. Turning to `c1ccc2nc(N3CC(Oc4nccnc4-c4cccc5ncccc45)C3)ccc2c1`, it took 87 nM to reach half-maximal inhibition (IC50).

In turn, `CC(=O)N1CCC(c2cnc(N3CCC(CO)CC3)nc2OC2CN(c3ccc4ccccc4n3)C2)CC1` displayed a concentration for half-maximal inhibition (IC50) of 0.39 nM. Under `CC(=O)N1CCC(c2nccnc2OC2CCN(c3cc(Cl)ccn3)CC2)CC1` stands 96 nM; under `c1cnc(O[C@H]2CCN(c3ccc4ccccc4n3)C2)c(C2CCOCC2)c1`, 340 nM; under `O=C(c1nc2ccccc2[nH]1)N1CC[C@@H](Oc2ncccc2C2=CCOCC2)C1`, 767 nM. Molecule `OCC1CCN(c2nccnc2OC2CN(c3ccc4ccccc4n3)C2)CC1` returned an IC50 of 2.3 nM. Under `Fc1ccc(-c2nccnc2OC2CN(c3ccc4ccccc4n3)C2)cn1` stands 45.7 nM; under `O=C(c1ccc2ccccc2n1)N1CCC(Oc2ncccc2C2CCOCC2)CC1`, 809 nM. As for `Cc1cc(N2CCC(Oc3ncccc3C3CCOCC3)CC2)nc2ccccc12`, the figure is 101 nM; as for `Cc1cc(-c2cccnc2OC2CCN(C(=O)c3nccc4ccccc34)CC2)ccn1`, 2130 nM. As for `Brc1ccc(N2CCC(Oc3ncccc3C3CCOCC3)CC2)nc1`, the figure is 138 nM. On to `O=C(c1nc2ccccc2[nH]1)N1CC(Oc2ncccc2C2=CCOCC2)C1`, for which the IC50 was 0.864 nM.

Molecule `c1cnc(O[C@H]2CCN(c3cc4ccccc4cn3)C2)c(C2CCOCC2)c1` displayed a concentration for half-maximal inhibition (IC50) of 2970 nM. As for `c1ccc2cc(N3CCC(Oc4nccnc4C4CCOCC4)CC3)ncc2c1`, the figure is 235 nM.

`Cc1cc(F)ccc1-c1nccnc1OC1CN(c2ccc3ccccc3n2)C1` gave a half-inhibitory concentration (IC50) of 918 nM. Under `c1ccc2[nH]c(N3CC[C@@H](Oc4nccnc4C4CCOCC4)C3)nc2c1` stands 306 nM; under `CC(=O)N1CC=C(c2nccnc2OC2CN(C(=O)c3ccc(C)cn3)C2)CC1`, 1030 nM. On to `O=C(c1nccc2ccccc12)N1CCC(Oc2nccnc2C2CCOCC2)CC1`, for which the IC50 came out at 7320 nM. Compared with the last molecule, the IC50 is about 7.1-fold higher. With `Cc1ccc2nc(N3CCC(Oc4nccnc4C4CCOCC4)CC3)ccc2c1`, the IC50 came out at 276 nM. `OCc1ccc(N2CCC(Oc3ncccc3C3CCOCC3)CC2)nc1`: it took 1170 nM to reach half-maximal inhibition (IC50). Against the preceding molecule, the IC50 is about 4.2-fold higher. As for `Cc1ccnc(N2CCC(Oc3ncccc3C3CCOCC3)CC2)c1`, the figure is 236 nM.
